Values quoted from earlier work as cited in patent publication US20230338375A1, “SUBSTITUTED PYRIDAZINONES FOR USE IN THE TREATMENT OF NEUROMUSCULAR DISEASES” (Edgewise Therapeutics, Inc., priority 2020, published 2023).

System: embryos from zebrafish model of DMD
Conditions: Li and Arner, PLoSONE, 2015

SMILES: Cc1ccc(S(=O)(=O)NCc2ccccc2)cc1 [BTS, N-benzyl-p-tolyl-sulfonamide]
- protection from pathological muscle derangement: protect muscles from pathological muscle derangement
